In patent US11311598B2, “Peptides and analogs for use in the treatment of oral mucositis” (Soligenix, Inc., priority 2013, dated 2022):
Where no end group is shown, it is not given here.

Columns and labels:
[1] = system: MRSA (USA300); format: in vivo, mouse
Description: Multiple studies with IV administered RIVPA (SEQ ID NO. 5) were conducted in a MRSA bacteremia model. […] In the first study, MRSA (USA300, 7.3 log 10 cfu) was administered via IV injection into the tail vein of female Balb/c mice at time 0. Four hours prior to infection, a single dose of saline or RIVPA (SEQ ID NO. 5) at the indicated dose levels was injected IV into the tail vein. Sub-optimal antibiotic treatment (linezolid, 6.25 mg/kg) was administered once orally immediately after infection. Survival was monitored for 21 days after the infection. In the second study, RIVPA (SEQ ID NO. 5) (IV) or saline (IV) was administered once 4 h prior to infection with MRSA (strain USA300, 7.0 log10 cfu) via the tail vein into female nu/nu mice.

[2] = system: male Golden Syrian hamsters; experiment: radiation-induced oral mucositis in hamsters (fractionated radiation); format: in vivo, hamster; details: for duration of severe oral mucositis: fractionated radiation model
Description: These studies confirmed that optimal dosing of RIVPA (SEQ ID NO. 5) involves dosing every third day and that the 25 mg/kg dose level is effective. In this model, cannulated male Golden Syrian hamsters were treated with 7.5 Gy of radiation, directed at the everted left cheek pouch, on Days 0, 1, 2, 3, 6, 7, 8 and 9. Mucositis was evaluated every second day between Days 7 and 35, with peak mucositis severity generally occurring around Day 19. In the first study, RIVPA (SEQ ID NO. 5) (25 mg/kg IV) was administered either every third day starting on Day 0 and continuing until Day 33 (Q3d d0-33), or on days of radiation therapy (Days 0, 1, 2, 3, […], 7, 8, 9) or every third day starting on Day 6 and continuing to Day 24 (Q3d d6-24). On days where both RIVPA (SEQ ID NO. 5) and radiation was administered, RIVPA (SEQ ID NO. 5) was given 2 hours after radiation. […] A follow-up study was undertaken to evaluate dosing with 25 mg/kg IV RIVPA (SEQ ID NO. 5) Q3d d0-33, on days of radiation, or every third day during radiation treatment (i.e., Days 0, 3, 6 and 9).

[3] = system: Klebsiella pneumoniae (Catalog No. 43816, ATCC); experiment: Klebsiella peritoneal infection model; format: in vivo, mouse
Description: RIVPA (SEQ ID NO. 5) treatment (24 mg/kg) was administered either IP (24 h prior to infection or 4 h post-infection) or IV (4 h post-infection) to female Balb/c mice (N=8/group) inoculated with Klebsiella pneumoniae (Catalog No. 43816, ATCC) at either 2.8×10^5 cfu (FIG. 13—panel A) or 5.3×10^2 cfu (FIG. 13—panel B) and survival was monitored over 24 h. A survival endpoint is shown for animals receiving the higher inoculum of bacteria (panel A).

[4] = system: whole blood; experiment: ex vivo LPS stimulation of whole blood from Phase 1 subjects; format: cell-based, human; details: dose range 0.15-2 mg/kg; 4 hours in vitro LPS stimulation of whole blood
Description: In ex vivo investigations using blood samples obtained during the Phase 1 healthy human volunteer study, a number of cytokine and chemokine analytes were quantified after 4 hours of in vitro stimulation of whole blood with LPS. The inter-individual variability in analyte levels was larger than any variation in time or response to RIVPA (SEQ ID NO. 5) or placebo administration and the data were therefore self-normalized using the individual pre-dose analyte level to standardize all responses for each individual subject (the Activity Ratio). RIVPA (SEQ ID NO. 5) effects on the analyte Activity Ratios (ARs) were neither constant throughout time, nor linearly dose responsive.

[5] = system: leukopenic animals; experiment: infection studies in leukopenic animals (antibiotic interference); format: in vivo
[6] = system: S. aureus (Catalog No. 25923, ATCC); experiment: S. aureus acute peritoneal infection model, local IP treatment; format: in vivo, mouse; details: female CD-1 mice, 9.5 mg/kg IP 4 h after infection; 24 h after infection
Description: Intraperitoneal (IP) injection of S. aureus (Catalog No. 25923, ATCC, 6×10^7 cfu) with 5% mucin was administered IP to female CD-1 mice (N=8/group) and RIVPA (SEQ ID NO. 5) (9.5 mg/kg) was injected IP 4 h later. Mice were sacrificed 24 h after infection and peritoneal lavage fluid was assessed for bacterial counts. The results of this study are shown in FIG. 11 (each data point represents the result from an individual mouse—dead mice were given the highest bacterial count of any mouse obtained in the study and are represented as open symbols in the graph).

[7] = system: mouse normal blood cells; experiment: proliferation of mouse normal blood cells in vitro; format: cell-based

Substance: RIVPA-NH2 [RIVPA (SEQ ID NO. 5), RIVPA]
- duration for which the survival benefit is sustained ([1]; FIG. 9): at least 21 days
- time after initiation of infection at which administration still confers a survival benefit ([1]; MRSA bacteremia model (data not shown)): up to 24 h
- time prior to initiation of infection at which a single dose still confers a survival benefit ([1]; depending on dose level (data not shown)): up to 5 days
- survival over the saline control ([1]; female Balb/c mice, single dose 50 mg/kg IV 4 h prior to infection, linezolid 6.25 mg/kg oral, 21 days): statistically significant enhanced survival
- treatment effectiveness on mucositis ([2]; first study, 25 mg/kg IV every third day Day 0 to Day 33 (Q3d d0-33)): most effective
- treatment effectiveness on mucositis ([2]; first study, 25 mg/kg IV every third day Day 6 to Day 24 (Q3d d6-24)): not beneficial
- treatment effectiveness on mucositis ([2]; first study, 25 mg/kg IV on days of radiation): most effective
- treatment effectiveness on mucositis ([2]; follow-up study, 25 mg/kg IV every third day during radiation (Days 0, 3, 6 and 9)): optimal
- duration of severe oral mucositis ([2]; FIG. 1): reduces
- duration of severe oral mucositis ([2]; optimized dosing regimen, FIG. 2): reduces
- severity and duration of mucositis ([2]; hamster, 7.5 Gy to left cheek pouch on Days 0, 1, 2, 3, 6, 7, 8 and 9, RIVPA IV): significantly reduced
- systemic versus local administration ([3]; 24 mg/kg IV vs IP): as good or better than local administration
- survival at the lower inoculum ([3]; 5.3×10^2 cfu, 24 h): survived in all groups
- survival ([3]; female Balb/c mice, 24 mg/kg IP or IV, 24 h): increased survival
- anti-inflammatory status (TNF RII, IL-1ra vs TNFα, IL-1β Activity Ratios) [4]: evidence of an increase
- interference with antibiotic efficacy [5]: no interference
- reduction of bacterial load in peritoneal lavage fluid [6]: over 7 logs
- proliferation of normal blood cells [7]: did not promote the proliferation
